Like-named read-outs stand apart in the source and are kept apart here. Square brackets hold non-standard residues; d marks the D form. Ends that are not written are not given here. Peptide text beside a SMILES is read from it. d2Nal = N[C@H](Cc1ccc2ccccc2c1)C(=O)O; Aib = CC(C)(N)C(=O)O
Key:
[1] = system: rat model of post-operative ileus; test: Gastric emptying (phenol red) after i.v. injection, ipamorelin compared to RC-1139, rat model of post-operative ileus (Example 5); assay type: in vivo; settings: 10 mg/kg i.v.; for lethality: n = 2
Experimental: Ipamorelin was evaluated in a rat model of post-operative ileus in comparison to RC-1139, a ghrelin mimetic with known gastrokinetic efficacy. Treatment groups were as follows.
All animals were examined twice daily for mortality and signs of ill health or reaction to treatment (except on the day of arrival and necropsy when the animals were examined once). Individual body weights were measured at randomization and on the day prior to dosing (for dose calculation purposes only).
All treatment procedures were replicated over two consecutive days with approximately equal numbers of animals from each group treated on each day. Food was withdrawn from animals overnight prior to surgery. On the day of surgery animals were anesthetized with isoflurane gas and a bland ophthalmic lubricant was applied to each eye. The animals were prepared for surgery by shaving of the entire abdominal region. The shaved area was cleaned and disinfected appropriately prior to incision. Using a scalpel blade, the abdomen was opened and the cecum localized. The cecum was exteriorized and manipulated for approximately one minute (i.e. gently patted between hands in saline-soaked gauze). Thereafter, the cecum was repositioned and the surgical site closed using absorbable suture material (interrupted sutures) and staples. Animals were then returned to their home cage to permit recovery from the anesthesia.
Animals were dosed immediately following the oral gavage dose of phenol red. The test/control articles and reference article were administered by intravenous injection (given as a slow bolus injection over a period of ca. 100 seconds) into the tail vein using a syringe and appropriate gauge needle. The dose volume was 5 mL/kg and the actual dose administered was based on the most recent body weight of each animal.
Prior to dosing of the phenol red, the animals were water deprived. At approximately 30 minutes post-surgery, animals received 0.4 mL of phenol red by oral gavage, then dosed with the test article, and then, approximately 30 minutes later, were euthanized. […]

[2] = Johansen et al. 1998; cited from earlier work
[3] = Prior Phase 1 studies, safety and tolerability; assay type: in vivo, humans; settings: 0.06 mg/kg IV infused over 15 minutes
Experimental: Ipamorelin was formulated as a 0.5 mg/mL sterile solution with 2 equivalents of acetic acid in normal saline. The sterile solution was further diluted with normal saline to an appropriate volume for administration prior to use.

Half-life in humans = assay type: in vivo
[4] = system: gastrointestinal motility in rats; test: Gastrointestinal motility in rats by charcoal transit, 0.25 mg/kg i.v. (Example 8); assay type: in vivo, rat; settings: for reduction of the amount of charcoal remaining in the stomach relative to the control group: 0.25 mg/kg i.v.
Experimental: The objective of this study was to evaluate the pharmacological effects of a series of ghrelin mimetics on gastrointestinal motility in rats, as measured by charcoal transit, relative to a commonly used prokinetic agent, metoclopramide, and control, following a single intravenous infusion of the experimental agent. Each dosing formulation was prepared on the day of dosing. […] The reference article formulations were also prepared on the day of dosing by mixing the appropriate amount of reference article with the appropriate volume of vehicle to achieve the desired final concentration. The saline and metoclopramide (1 mg/mL) were used as supplied. Dosing was performed on consecutive days with approximately equal numbers of animals being dosed on each day. The animals were deprived of food overnight prior to treatment. Each formulation was administered by intravenous injection into the tail vein using a syringe and appropriate gauge needle. The dose volume was 5 mL/kg or 10 mL/kg (in the case of metoclopramide only). […] Following the observation period the rats were euthanized, the abdominal cavity opened, and the stomach and intestines removed. The presence or absence of charcoal was documented. The stomachs were weighed (with or without contents) to give an indication of gastric emptying. The intestines were opened and extended to their full length. The charcoal was located and the distances from the pyloric sphincter to the most proximal and distal traces of charcoal were measured as was the total distance from the pyloric sphincter to the cecum. Also, the distance traveled by the charcoal as a percentage of the total length of the small intestine was measured.

[5] = system: morphine-induced gastric ileus in rats; test: Morphine-induced gastric ileus in rats, phenol red gastric emptying (Example 4); assay type: in vivo, rat
Experimental: Treatment groups were set up as follows.
The dose volume was 0.1 mL/kg for Groups 2 and 3 and 0.4 mL/kg for Groups 4 and 5. The actual dose administered was based on the most recent practical body weight of each animal.
Approximately 30 minutes following administration of control or test article, the rats were euthanized. The stomach was then exposed by laparotomy, quickly ligated at the pylorus and the cardia and removed. The stomach was cut open and its contents extracted with 100 mL of 0.1N NaOH. The phenol red content of this extract was assayed […] at 558 nm in a spectrophotometer. Following collection, samples were stored on wet ice pending transfer for analysis.

[6] = cited from earlier work
[7] = system: gastrointestinal motility in rats; test: Gastrointestinal motility in rats by charcoal transit, equimolar i.v. dose (Example 9); assay type: in vivo, rat; settings: single intravenous dose of 75 μmoles/kg
Text: The objective of this study was to evaluate the pharmacological effects of a series of ghrelin mimetics on gastrointestinal motility in rats, as measured by charcoal transit, relative to control, following a single intravenous infusion of the experimental agent.
Dosing commenced on consecutive days with approximately equal numbers of animals from each group being dosed on each day. The animals were food deprived overnight prior to treatment. Prior to dosing, the animals were water deprived. The test/reference/positive control articles were administered by intravenous injection into the tail vein using a syringe and appropriate gauge needle. […]
At the end of the observation period, the rats were euthanized and the abdominal cavity was opened and the stomach and intestines were removed. […] The stomachs were weighed (with and without contents) and this was recorded to give an indication of gastric emptying. […] The charcoal was located and the distances from the pyloric sphincter to the most proximal and distal traces of charcoal were measured and recorded, as well as the total distance from the pyloric sphincter to the cecum (all distances were measured in mm). In addition to the stomachs weights (with and without contents) the distance traveled by the charcoal as a percentage of the total length of the small intestine was recorded to give an indication of the gastric emptying. […]

rat model of POI = test: Rat model of POI (running of the bowel), single dose (Example 10, series 1); assay type: in vivo
Text: Animals: Adult male Sprague-Dawley rats with indwelling catheters implanted in the right jugular vein were obtained from Charles River (Wilmington, Mass.). The initial body weight of the animals was 250-270 g. The catheters were maintained patent during the acclimation and were used for the dosing of ipamorelin or vehicle. An additional group of control rats, not subjected to surgery and drug or vehicle treatment, were purchased with an indwelling catheter implanted into the proximal colon (1-2 cm from the cecum) used for infusion of a dye marker measuring colonic transit. All rats were single-housed under controlled conditions (25° C., 12 h light/dark cycle) with free access to food and water. An acclimation period of at least one week was allowed prior to the experiments. • Induction of post-operative ileus (POI): POI was induced by a surgical procedure described as “running of the bowel” (Kalff et al., 1998). Specifically, rats were anesthetized with isoflurane (2-3%) inhalation, the abdomen was shaved, disinfected and a midline incision was made to expose the viscera. The small intestine and the cecum were exteriorized and inspected for 5 min using cotton applicators soaked in sterile saline. After completing the inspection, the intestine was covered with gauze soaked in saline and the abdomen remained open for additional 10 min. To study colonic transit, 200 μl of a non-absorbable dye marker (trypan blue in saline) was injected into the proximal colon (1 cm distal to the cecum). The incision was then closed with silk sutures. The whole procedure lasted 25-30 min. Surgeries were always performed at 6:00-8:00 AM and the animals received ipamorelin or vehicle treatment during the light phase of the light/dark cycle. • Measurement of colonic transit time: Prior to the experiments, the rats were fasted for 20-22 h with free access to water. […] Colonic transit time was evaluated as the period between the end of surgery and the appearance of dye in the fecal pellet. […] The cumulative fecal output was evaluated by adding the number of pellets throughout a 48-h post-surgical period. Food intake was recorded at 3-h interval or 12-h intervals according to the experimental design and was normalized as g/100 g body weight. The cumulative food intake was calculated for 48 h post-surgery in both series of experiments. Body weight was measured daily at 8:00-9:00 AM before fasting the animals, on the day of experiment before the surgery and at 24 h and 48 h post-surgery. Changes in body weight are expressed as body weight gain compared to the weight of the fasted animal taken before the surgery. • Test and control articles: The test compound ipamorelin (free base) was converted to the diacetate salt by mixing with 2 molar equivalents of glacial acetic acid. […]

[8] = cited from earlier work; remark: listed apart in the source
[9] = single dose i.v., first 48 h post-surgery
[10] = 50 μg/kg i.v. after 1 mg/kg morphine

## CN(C(=O)/C=C/CC(C)(C)N)[C@H](Cc1ccc(-c2ccccc2)cc1)C(=O)N(C)[C@H](Cc1ccccc1)C(=O)N1CCC(O)CC1 [RC-1139]
[1]
  stomach content of the phenol red marker lower than that of the control group: approximately 16%

## CC(C)(N)C(=O)N[C@@H](Cc1c[nH]cn1)C(=O)N[C@H](Cc1ccc2ccccc2c1)C(=O)N[C@H](Cc1ccccc1)C(=O)N[C@@H](CCCCN)C(N)=O [ipamorelin, α-Methylalanine-L-histidine-D-β-(2-naphthyl)-alanine-D-phenylalanine-L-lysinamide] (H-[Aib]H[d2Nal][dF]K-NH2)
[2]
  half-life in the rat: 30 to 60 min
[3]
  safety and tolerability in prior Phase 1 studies: safe and well-tolerated
Half-life in humans
  half-life in humans: approximately six
Half-life in humans; human, serum
  half-life: 180 to 390 min
[1]
  lethality: Two animals died immediately
[1]; listed as Ipamorelin
  lethality: *Lethality was observed immediately following administration of a 10 mg/kg dose (n = 2) and consequently the dose level was reduced to 0.25 mg/kg for all remaining animals in Group 4

## CCN(CC)CCNC(=O)c1cc(Cl)c(N)cc1OC [metoclopramide]
[4]; 10 mg/kg i.v.
  increase of distal distance traveled by the charcoal meal versus control: 29%
  stomach charcoal content versus control group: not significantly different
[4]; 10 mg/kg i.v., control group 67.3%
  distal distance traveled by the charcoal meal: 86.9%

## CN1CC[C@]23c4c5ccc(O)c4O[C@H]2[C@@H](O)C=C[C@H]3[C@H]1C5 [morphine]
[5]; 1 or 4 mg/kg subcutaneous
  reduction of stomach emptying compared to the control animals: approximately 42%

## GHRP-6
[6]; Bowers et al. 1992
  serum half life: 20 min
[7]
  intestinal transit, proximal distance traveled by the charcoal from the pyloric sphincter: resulted in gastric emptying by one of the two measures
[4]
  reduction of the amount of charcoal remaining in the stomach relative to the control group: 64%
Rat model of POI; [9]
  body weight gain: neither ipamorelin nor GHRP-6 had a significant effect
  fecal pellet output: neither ipamorelin nor GHRP-6 had a significant effect
  food intake: neither ipamorelin nor GHRP-6 had a significant effect
Rat model of POI; single post-surgical dose of 20 μg i.v.
  colonic transit time: significantly decreased

## ghrelin: 28-amino acid peptide that is produced in the stomach; potent prokinetic peptide known to reverse gastric ileus (GSSFLSPEHQRVQQRKESKKPPAKLQPR; ends and bridges not checked; UniProt Q9UBU3 24-51, looked up)
[6]; biologically active (acylated) form, Akamizu et al. 2004
  serum half-life: 9 to 13 min
[7]
  intestinal transit, proximal distance traveled by the charcoal from the pyloric sphincter: resulted in gastric emptying by one of the two measures
[5]; [10]
  acceleration of stomach emptying compared to animals treated with 1 mg/kg morphine and saline: approximately 37%
  reversal of the ileus induced: approximately 11%
[5]; 50 μg/kg i.v. after 4 mg/kg morphine
  gastric emptying in rats administered 4 mg/kg of morphine: did not accelerate gastric emptying
[5]; 50 μg/kg i.v. after 4 mg/kg morphine, saline group 2.99
  group mean absorbance of phenol red: 3.01
[4]
  reduction of the amount of charcoal remaining in the stomach relative to the control group: 57%
[8]
  half-life in humans: approximately 10 minutes

Reference: patent US8039456B2, “Method of stimulating the motility of the gastrointestinal system using ipamorelin” (Helsinn Therapeutics (U.S.), Inc., priority 2004, dated 2011)
